Test results published in patent US20170190671A1, “BIS(ARYL)CATECHOL DERIVATIVES AS HERBICIDES” (E I DU PONT DE NEMOURS AND COMPANY, priority 2014, published 2017).

Assays:
[1] = system: barnyardgrass (Echinochloa crus-galli); assay: Test C postemergence; type: in vivo; details: Echinochloa crus-galli, post-emergence, Postemergence, scale 0 to 100, read-out: Plant response rating, Barnyardgrass
How it was run: (§1)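 Visual ratings (0 none to 100 complete control) were made 13 to 15 days after treatment, relative to controls. Test chemicals, formulated in a non-phytotoxic solvent mixture with surfactant, were applied in the greenhouse preemergence to seeded loam-sand soil or postemergence to plants 2 to 18 cm tall.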

[2] = system: oilseed rape (Brassica napus); assay: Test C postemergence; type: in vivo; details: Brassica napus, post-emergence, Postemergence, scale 0 to 100, read-out: Plant response rating, Oilseed Rape
How it was run: as §1

wild oat (Avena fatua) = assay: Test C postemergence; type: in vivo; details: Avena fatua, post-emergence, Postemergence, scale 0 to 100, read-out: Plant response rating, Oat, Wild
How it was run: as §1

[3] = system: galium (catchweed bedstraw, Galium aparine); assay: Test C postemergence; type: in vivo; details: Galium, post-emergence, 336 h, Postemergence, scale 0 to 100, read-out: Plant response rating, Galium
How it was run: as §1

[4] = system: pigweed (Amaranthus retroflexus); assay: Test C postemergence; type: in vivo; details: Amaranthus retroflexus, post-emergence, 336 h, Postemergence, scale 0 to 100, read-out: Plant response rating, Pigweed
How it was run: as §1

kochia (Kochia scoparia) = assay: Test C postemergence; type: in vivo; details: Bassia scoparia, post-emergence, Postemergence, scale 0 to 100, read-out: Plant response rating, Kochia
How it was run: as §1

corn (Zea mays) = assay: Test C postemergence; type: in vivo; details: Zea mays, post-emergence, 336 h, Postemergence, scale 0 to 100
How it was run: as §1

[5] = system: morningglory (Ipomoea coccinea); assay: Test C postemergence; type: in vivo; details: Ipomoea, post-emergence, 336 h, Postemergence, scale 0 to 100, read-out: Plant response rating, Morningglory
How it was run: as §1

soybean (Glycine max) = assay: Test C postemergence; type: in vivo; details: Glycine max, post-emergence, Postemergence, scale 0 to 100, read-out: Plant response rating, Soybean
How it was run: as §1

[6] = system: johnsongrass (Sorghum halepense); assay: Test C postemergence; type: in vivo; details: Sorghum halepense, post-emergence, 336 h, Postemergence, scale 0 to 100, read-out: Plant response rating, Johnsongrass
How it was run: as §1

[7] = system: waterhemp (common waterhemp, Amaranthus rudis); assay: Test C postemergence; type: in vivo; details: Amaranthus tuberculatus, post-emergence, Postemergence, scale 0 to 100, read-out: Plant response rating, Waterhemp
How it was run: as §1

[8] = system: Italian ryegrass (Lolium multiflorum); assay: Test C postemergence; type: in vivo; details: Lolium multiflorum, post-emergence, 336 h, Postemergence, scale 0 to 100, read-out: Plant response rating, Ryegrass, Italian
How it was run: as §1

[9] = system: ragweed (common ragweed, Ambrosia elatior); assay: Test C postemergence; type: in vivo; details: Ambrosia artemisiifolia, post-emergence, 336 h, Postemergence, scale 0 to 100, read-out: Plant response rating, Ragweed
How it was run: as §1

[10] = system: large (Lg) crabgrass (Digitaria sanguinalis); assay: Test C postemergence; type: in vivo; details: Digitaria sanguinalis, post-emergence, 336 h, Postemergence, scale 0 to 100, read-out: Plant response rating, Crabgrass, Large
How it was run: as §1

[11] = system: winter wheat (Triticum aestivum); assay: Test C postemergence; type: in vivo; details: Triticum aestivum, post-emergence, 336 h, Postemergence, scale 0 to 100, read-out: Plant response rating, Wheat
How it was run: as §1

N#Cc1cccc(Oc2ncc(C(F)(F)F)cn2)c1Oc1ncc(Cl)cn1 [Compound 39, 2-[(5-chloro-2-pyrimidinyl)oxy]-3-[[5-(trifluoromethyl)-2-pyrimidinyl]oxy]-benzonitrile]
pest or weed control at 16 g/ha ([1]; 16 g ai/ha): 5%
pest or weed control at 31 g/ha ([1]; 31 g ai/ha): 15%
pest or weed control at 62 g/ha ([1]; 62 g ai/ha): 15%
pest or weed control at 125 g/ha ([1]; 125 g ai/ha): 25%
plant injury at 31 g/ha ([2]; 31 g ai/ha): 5%
plant injury at 62 g/ha ([2]; 62 g ai/ha): 40%
plant injury at 125 g/ha ([2]; 125 g ai/ha): 40%
pest or weed control at 31 g/ha (wild oat (Avena fatua); 31 g ai/ha): 5%
pest or weed control at 62 g/ha (wild oat (Avena fatua); 62 g ai/ha): 10%
pest or weed control at 125 g/ha (wild oat (Avena fatua); 125 g ai/ha): 15%
pest or weed control at 16 g/ha ([3]; 16 g ai/ha): 60%
pest or weed control at 31 g/ha ([3]; 31 g ai/ha): 80%
pest or weed control at 62 g/ha ([3]; 62 g ai/ha): 80%
pest or weed control at 125 g/ha ([3]; 125 g ai/ha): 90%
pest or weed control at 31 g/ha ([4]; 31 g ai/ha): 70%
pest or weed control at 62 g/ha ([4]; 62 g ai/ha): 90%
pest or weed control at 125 g/ha ([4]; 125 g ai/ha): 95%
pest or weed control at 16 g/ha (kochia (Kochia scoparia); 16 g ai/ha): 90%
pest or weed control at 31 g/ha (kochia (Kochia scoparia); 31 g ai/ha): 95%
pest or weed control at 62 g/ha (kochia (Kochia scoparia); 62 g ai/ha): 100%
pest or weed control at 125 g/ha (kochia (Kochia scoparia); 125 g ai/ha): 100%
Corn plant response rating (crop injury, 0 = no effect, 100 = complete kill) at 16 g/ha (corn (Zea mays); 16 g ai/ha): 5%
Corn plant response rating (crop injury, 0 = no effect, 100 = complete kill) at 31 g/ha (corn (Zea mays); 31 g ai/ha): 10%
Corn plant response rating (crop injury, 0 = no effect, 100 = complete kill) at 62 g/ha (corn (Zea mays); 62 g ai/ha): 10%
Corn plant response rating (crop injury, 0 = no effect, 100 = complete kill) at 125 g/ha (corn (Zea mays); 125 g ai/ha): 20%
pest or weed control at 31 g/ha ([5]; 31 g ai/ha): 75%
pest or weed control at 62 g/ha ([5]; 62 g ai/ha): 90%
pest or weed control at 125 g/ha ([5]; 125 g ai/ha): 85%
plant injury at 31 g/ha (soybean (Glycine max); 31 g ai/ha): 60%
plant injury at 62 g/ha (soybean (Glycine max); 62 g ai/ha): 95%
plant injury at 125 g/ha (soybean (Glycine max); 125 g ai/ha): 70%
pest or weed control at 16 g/ha ([6]; 16 g ai/ha): 5%
pest or weed control at 31 g/ha ([6]; 31 g ai/ha): 15%
pest or weed control at 62 g/ha ([6]; 62 g ai/ha): 10%
pest or weed control at 125 g/ha ([6]; 125 g ai/ha): 10%
pest or weed control at 31 g/ha ([7]; 31 g ai/ha): 75%
pest or weed control at 62 g/ha ([7]; 62 g ai/ha): 85%
pest or weed control at 125 g/ha ([7]; 125 g ai/ha): 95%
pest or weed control at 31 g/ha ([8]; 31 g ai/ha): 0%
pest or weed control at 62 g/ha ([8]; 62 g ai/ha): 5%
pest or weed control at 125 g/ha ([8]; 125 g ai/ha): 10%
pest or weed control at 31 g/ha ([9]; 31 g ai/ha): 65%
pest or weed control at 62 g/ha ([9]; 62 g ai/ha): 60%
pest or weed control at 125 g/ha ([9]; 125 g ai/ha): 85%
pest or weed control at 16 g/ha ([10]; 16 g ai/ha): 5%
pest or weed control at 31 g/ha ([10]; 31 g ai/ha): 5%
pest or weed control at 62 g/ha ([10]; 62 g ai/ha): 10%
pest or weed control at 125 g/ha ([10]; 125 g ai/ha): 10%
plant injury at 31 g/ha ([11]; 31 g ai/ha): 0%
plant injury at 62 g/ha ([11]; 62 g ai/ha): 5%
plant injury at 125 g/ha ([11]; 125 g ai/ha): 0%
melting point: 109 to 112 °C
